In one test the test system is Cytotoxicity. The test can be described thus: inhibitors of PAF-induced NFkB signaling in CF airway cells, dose response, cell-based, uHTS hits, panel, cytotoxicity readout (AID 624344). To be noted: CF bronchial epithelial cells, mean of runs.
Test in test [1]: as above
To be noted: CF bronchial epithelial cells, PAF-induced NFkB reporter inhibition; with PAF, mean of runs.

IC50 data for 67 compounds are collected here from PubChem BioAssay AID624344 (Sanford-Burnham Center for Chemical Genomics, 2012).

The term IC50 denotes the concentration that gives 50% inhibition.

Activity calls are given as the source filed them. The rule behind the calls is not given here.

As for `O=C(Nc1ccncc1)c1c(Cl)cccc1Cl`, the IC50 with Cytotoxicity was 38.9 µM; in test [1] it was 5.03 µM.
For `C/C=C/COC(=O)c1[nH]c2c(c1C)C(=O)CC(c1ccco1)C2` (centres undefined) the same measures were 52.8 µM (inactive) and “inactive”.
For `Clc1cccc(Nc2ncnc3ccc(Br)cc23)c1` the same measures were 15.1 µM and 3.53 µM.
As for `COc1ccc([C@]2(C(C)C)ON(c3ccccc3C(F)(F)F)C2=O)cc1`, the IC50 with Cytotoxicity was > 79 µM (inactive); in test [1], 11.1 µM.
In the case of `CCN1CCN(Cc2ccc(NC(=O)c3ccc(C)c(NC(=O)c4ccno4)c3)cc2C(F)(F)F)CC1`, the IC50 with Cytotoxicity was > 79 µM (inactive); in test [1] it was less than 0.15 µM.
Take `CC1(C)Cc2c(ccc3ccccc23)C(=O)N1`: the IC50 in the test with Cytotoxicity was > 79 µM (inactive); in test [1] it was 3.27 µM.
As to `CCOC(=O)c1[nH]c(C)c(C(=O)N2CCc3ccccc32)c1C`, the IC50 in the test with Cytotoxicity is 44.5 µM; in test [1], > 79 µM (inactive).
With `CCC(=O)Nc1nc(C)c(-c2csc(Nc3cccc(O)c3)n2)s1`, the IC50 in the test with Cytotoxicity was > 79 µM (inactive); in test [1], 3.06 µM.
Take `O=C(COC(=O)c1ccccc1C(=O)c1ccc(Cl)c([N+](=O)[O-])c1)NC1CCCCCC1`: the IC50 in the test on Cytotoxicity was 5.03 µM; in test [1], 1.6 µM.
For `Cn1c(Sc2ccc(Br)cc2)c(C=O)c2ccccc21` the same measures were 5.64 µM and 1.4 µM.
With `Cc1ccc(NC(=O)Nc2nnc(-c3ccncc3)s2)cc1C`, the IC50 was 9.39 µM with Cytotoxicity and 3.46 µM in test [1].
Take `Cc1ccc2[nH]cc(C(=O)CCl)c2c1`: the IC50 was 4.07 µM with Cytotoxicity and 2.32 µM in test [1].
For `Cc1ccc(NC(=O)c2ccccc2NS(=O)(=O)c2ccc(Cl)s2)cc1S(=O)(=O)N1CCOCC1`, the IC50 with Cytotoxicity is 8.23 µM; in test [1], 3.36 µM.
Consider `CC(=O)c1c(O)cc2c3c1OC(C)(C)C1CCC(C)(CC31)O2` (centres undefined), for which the IC50 is 53.5 µM (inactive) with Cytotoxicity and 2.73 µM in test [1].
For the compound `CN(Cc1ccco1)c1ncnc2ccc(-c3ccoc3)cc12`, the IC50 with Cytotoxicity is 50.9 µM (inactive); in test [1] it was 8.08 µM.
For `O=c1[nH]c2ccccc2n1C1CCN(C(c2cc3ccccc3o2)c2nnnn2-c2ccc3c(c2)OCCO3)CC1` (centres undefined), the values for the IC50 (in the test with Cytotoxicity; in test [1]) were 10.2 µM and 3.2 µM, respectively.
As for `CC(=O)Oc1c(Br)cc(N(C(C)=O)S(=O)(=O)c2ccccc2)c2ccccc12`, the IC50 with Cytotoxicity was 9.15 µM; in test [1] it was 7.32 µM.
Regarding `COc1ccc2c(c1)c(C(C)=O)c(C)n2-c1ccc(C(C)=O)cc1`, the IC50 in the test with Cytotoxicity is 44.5 µM; in test [1], 2.83 µM.
For `CC(C)C[C@H]1CNC(=S)N1C[C@H]1CCCN1C[C@H](Cc1ccccc1)N1C[C@H](Cc2ccc(O)cc2)N(CC2CCCCCC2)C1=S`, the IC50 in the test with Cytotoxicity was 28.6 µM; in test [1], 15.3 µM.
On to `Cc1nnc(Sc2nc3ccccc3o2)c2ccccc12`, for which the IC50 with Cytotoxicity is 5.61 µM; in test [1] it was 6.57 µM.
For the compound `COc1cc(NC(=O)c2cc3ccccc3cc2OC)ccc1NC(=O)c1cccs1`, the values for the IC50 (with Cytotoxicity; in test [1]) were 11 µM and 5.79 µM, respectively.
For `O=C(Nc1cccc2[nH]ncc12)c1ccc(F)cc1` the same measures were > 79 µM (inactive) and 1.06 µM.
For the compound `C=CC[C@@H](CC(=O)N(CCO)Cc1ccccc1)C(=O)NC[C@H](OC(=O)[C@@H](CC=C)Cc1ccc(F)cc1)c1ccccc1`, the IC50 in the test on Cytotoxicity is 4.23 µM; in test [1], 4.05 µM.
Consider `CCSc1nsc(NC(=O)Nc2cccc(OC)c2)n1`, for which the IC50 was 23.3 µM in the test with Cytotoxicity and 4.22 µM in test [1].
For `COc1ccccc1NS(=O)(=O)c1cccc(-n2c(O)c(C=Nc3ccccc3C(=O)O)c3ccccc3c2=O)c1`, the IC50 is 37.1 µM in the test on Cytotoxicity and 5.54 µM in test [1].
For `C=CCN1c2ccccc2[C@]23C[C@@H](C(=O)OC)N(C(=O)c4ccc(Br)cc4)C2=NC(C(=O)OC)=C(C(=O)OC)[C@H]13`, the IC50 was 12.2 µM in the test on Cytotoxicity and 9.35 µM in test [1].
Regarding `COc1cc(C2c3cc4c(cc3CC3COC(=O)C32)OCO4)cc(OC)c1O` (centres undefined), the IC50 (in the test with Cytotoxicity; in test [1]) was > 79 µM (inactive) in each case.
For `NC(=O)c1sc2nc3c(c(-c4ccccc4)c2c1N)CCC3`, the figures for the IC50 (in the test with Cytotoxicity; in test [1]) were 60.1 µM (inactive) and 1.17 µM, respectively.
For the compound `c1cncc(CNc2ncnc3ccc(-c4ccoc4)cc23)c1`, the IC50 in the test on Cytotoxicity is 50.1 µM (inactive); in test [1] it was 1.39 µM.
Take `COc1ccc(-c2oc3ccc(-c4ccc(OC)nc4)cc3c2C#CC2(O)CCCCC2)cc1`: the IC50 is 14.4 µM in the test on Cytotoxicity and 6.05 µM in test [1].
For `CCc1c(C)nc2ccc(Br)cc2c1SCCC#N`, the IC50 with Cytotoxicity was 24.8 µM; in test [1] it was 3.12 µM.
For `C=CCSc1nc2ccccc2n1C(=O)/C=C/c1ccc(OC)c(OC)c1`, the IC50 in the test on Cytotoxicity was 62 µM (inactive); in test [1], 3.46 µM.
With `COc1ccc(C2CNC(=O)C2)cc1OC1CCCC1` (centres undefined), the IC50 was 40.7 µM in the test with Cytotoxicity and 11.3 µM in test [1].
For `CNC(=O)COC(=O)c1ccccc1C(=O)c1ccc(Cl)c([N+](=O)[O-])c1` the same measures were 3.7 µM and 1.01 µM.
As to `CCOc1ccc(C(C(=O)NCC2CCCO2)N(Cc2cccs2)C(=O)c2snc(C(N)=O)c2N)cc1` (centres undefined), the IC50 in the test with Cytotoxicity was > 79 µM (inactive); in test [1] it was 3.47 µM.
On to `Cc1cccc(NC(=O)c2nc(S(=O)(=O)Cc3ccccc3)ncc2Cl)c1`, for which the IC50 with Cytotoxicity is 3.39 µM; in test [1], 2.51 µM.
Turning to `Cc1ccc(NC(=O)Nc2cccc([N+](=O)[O-])c2)cc1F`, the IC50 in the test with Cytotoxicity was 3.58 µM; in test [1], 6.2 µM.
On to `COc1cc(OC)cc(C(=O)N[C@H](C(=O)Nc2nc3ccccc3[nH]2)C(C)C)c1`, for which, in the test with Cytotoxicity, the IC50 was 41.1 µM. In addition, the IC50 result in test [1] was “inactive”.
As for `COc1ccc(-c2cn[nH]c2-c2ccc(O)cc2O)cc1`, the IC50 with Cytotoxicity was > 79 µM (inactive); in test [1], 1.76 µM.
Consider `Cn1cccc1C(=O)NC(=O)COC(=O)c1ccc(S(C)(=O)=O)c([N+](=O)[O-])c1`, for which the results for the IC50 (in the test on Cytotoxicity; in test [1]) were 5.85 µM and 5.26 µM, respectively.
For `O=S(=O)(Nc1ccc(Cl)cc1NS(=O)(=O)c1ccccc1)c1ccccc1` the same measures were 40.3 µM and 10 µM.
Take `COc1ccc(NC(=O)Nc2nnc(-c3ccncc3)s2)cc1`: the IC50 in the test with Cytotoxicity was 64.7 µM (inactive); in test [1], 5.6 µM.
As to `CC(C)(C)c1nc(NC(=O)Nc2ccccc2)sc1Br`, the IC50 is 12.6 µM in the test on Cytotoxicity and 6.59 µM in test [1].
With `COc1ccc(NC(=O)Cn2ncn3nc(-c4ccc(OC)cc4)cc3c2=O)cc1`, the results for the IC50 (with Cytotoxicity; in test [1]) were 5.34 µM and 6.69 µM, respectively.
Regarding `COc1ccc(C2=Nn3c(nnc3-c3ccccc3OC)SC2)cc1OC1CCOC1` (centres undefined), the IC50 in the test with Cytotoxicity is > 79 µM (inactive); in test [1], 4.85 µM.
For `NS(=O)(=O)c1ccc(CCNC(=O)c2ccc(C#CC3(O)CCCCC3)cc2)cc1`, the IC50 with Cytotoxicity is 5.01 µM; in test [1] it was 3.47 µM.
On to `Cc1nc([N+](=O)[O-])c(Sc2nc3ccc([N+](=O)[O-])cc3[nH]2)n1Cc1ccccc1`, for which the IC50 in the test on Cytotoxicity is 8.03 µM; in test [1], 3.5 µM.
With `O=C(COc1ccc(Cl)cc1)Nc1ncc([N+](=O)[O-])s1`, the IC50 with Cytotoxicity was 3.32 µM; in test [1] it was 1.02 µM.
Turning to `Cc1ncc(CC(=O)n2cc(C(=O)c3cc(Cl)ccc3O)cn2)s1`, the values for the IC50 (with Cytotoxicity; in test [1]) were 44.5 µM and 7.56 µM, respectively.
For `COc1ccc(N(Cc2cc(=O)[nH]c3ccccc23)C(=O)CCl)cc1` the same measures were 4.29 µM and 2.89 µM.
`O=[N+]([O-])c1ccc(O)c(C2CCCCC2)c1`: the IC50 is 3.28 µM in the test with Cytotoxicity and 2.04 µM in test [1].
For `Cc1ccc(C(C(=O)NCc2ccccc2)N(Cc2cccs2)C(=O)c2ccc3c(c2)OCCO3)cc1` (centres undefined) the same measures were 3.48 µM and 3.04 µM.
As for `Cc1ccccc1C(=O)N1CCN(c2ccc(NC(=O)CSc3ccc(Cl)cc3)cc2)CC1`, the IC50 in the test on Cytotoxicity is > 79 µM (inactive); in test [1] it was 0.879 µM.
As to `Cc1c([N+](=O)[O-])c2ccc(O)cc2n1-c1ccccc1`, the IC50 in the test with Cytotoxicity was 26.2 µM; in test [1], 0.851 µM.
Consider `CC(=O)Oc1ccc(N(C(C)=O)S(=O)(=O)c2cccs2)c2ccccc12`, for which the IC50 with Cytotoxicity was 11.7 µM; in test [1], 6.45 µM.
For `COc1cccc(-c2nnc3n2N=C(C(C)(C)C)CS3)c1` the same measures were 11.4 µM and 0.442 µM.
For `Nc1ncnc(NCc2ccc(F)cc2)c1[N+](=O)[O-]` the same measures were > 79 µM (inactive) and 3.33 µM.
For `O=C(NCc1ccccc1)C1=C[C@H](c2csc3ccccc23)C[C@H](OCc2ccc(CO)cc2)O1` the same measures were 12.8 µM and “inactive”.
Regarding `COc1cc(O)c(CC=C(C)C)c(O)c1C(=O)CCc1ccc(O)cc1`, the IC50 was 41.5 µM with Cytotoxicity and 5 µM in test [1].
In the case of `COc1cccc2sc(N(CCCN(C)C)C(=O)CCS(=O)(=O)c3ccccc3)nc12`, the IC50 was 4.84 µM with Cytotoxicity and 2.34 µM in test [1].
For `CC1=C(/C=C/C(C)=C/C=C/C(C)=C\C(=O)O)C(C)(C)CCC1` the same measures were > 79 µM (inactive) and 0.64 µM.
In the case of `C#CCN(C[C@@H]1[C@@H](OC(=O)NC2CC2)[C@@H](OC(=O)NC2CC2)Cn2c(=O)ccc(=O)n21)S(=O)(=O)c1ccc(C)cc1`, the IC50 in the test with Cytotoxicity is 19.2 µM; in test [1], 2.73 µM.
Turning to `C[C@]12CCC(O)CC1CCC1C2CC[C@]2(C)C(c3cc(C(F)(F)F)n[nH]3)CCC12` (some centres undefined), the results for the IC50 (in the test with Cytotoxicity; in test [1]) were 5.25 µM and 1.92 µM, respectively.
With `CC(=O)Nc1ccc(Nc2nc(-c3sc(NC(C)=O)nc3C)cs2)cc1`, the IC50 is 28.4 µM in the test on Cytotoxicity and 1.69 µM in test [1].
For the compound `Nc1nc(N)nc(-c2cc([N+](=O)[O-])ccc2O)n1`, the IC50 with Cytotoxicity is > 79 µM (inactive); in test [1], 8.82 µM.
On to `CCOC(=O)Nc1ccc2c(c1)N(C(=O)CCN(CC)CC)c1ccccc1S2=O` (centres undefined), for which the IC50 is 34.5 µM in the test with Cytotoxicity and 5.94 µM in test [1].
Consider `Cc1nn(-c2cccc(Cl)c2)c2nc(C(F)(F)F)[nH]c(=O)c12`, for which the IC50 is 27.4 µM with Cytotoxicity and 16.9 µM in test [1].
